Data as given in PMC9259591, “Irigenin, a novel lead from Iris confusa for management of Helicobacter pylori infection with selective COX-2 and HpIMPDH inhibitory potential” (Scientific Reports, 2022).
Converted amounts (≈) assume the structure as drawn. “And” between values parts separate entries of the source, which are not always exact repeats. Equal entries are not always repeated. Where two headings read alike, the source gives them in different places.

Assays:
[1] = tested on: RAW 264.7 macrophage cell line (NO); assay: nitric oxide (NO) inhibitory activity in lipopolysaccharide-stimulated macrophages; format: cell-based, murine; conditions: Mus musculus, RAW264.7; RAW 264.7 cells, 1 µg/mL lipopolysaccharide
Method: The detailed procedures were described in the supplementary file.
The cell was incubated at 37 °C in 5% carbon dioxide. RAW 264.7 cells were seeded onto a 96-well plate (1×10^5 cells/well) and incubated for 24 h. […] Followed by incubation, the cells stimulated with 1µg/mL of lipopolysaccharide for another 24 h. The supernatant was gently transferred to new 96-well plates and used for NO determination. L-N 6 - (1-iminoethyl) lysine hydrochloride), is used as standard drug. The absorbance (Abs) was measured in a microplate reader at 540 nm ^3. The percentage inhibition was calculated using the following formula:
Inhibition (%) = 1-[Control-Test] Control × 100.

[2] = molecular target: T1, Human inosine-5′-monophosphate dehydrogenase (hIMPDH2) (Homo sapiens, UniProt P12268); assay: In vitro hIMPDH2 inhibition assay (NADH absorbance at 340 nm); format: biochemical; parameters: key to hIMPDH2 inhibitory activity: % hIMPDH2 inhibition; conditions: for hIMPDH2 inhibitory activity: in % (unit assumed)
T1 construct: purchased NovoCIB SAS (Lyon, France)
Method: Human inosine-5′-monophosphate dehydrogenase (hIMPDH2) was purchased from NovoCIB SAS (Lyon, France). […] The detailed procedures were described in the supplementary file.
Thus, irigenin was selected to test its HpIMPDH inhibitory activity by monitoring NADH production at concentration range of 10–0.078 µM compared to clarithromycin as standard drug. Also, to examine irigenin selectivity toward the bacterial IMPDH, human hIMPDH2 inhibition potential was assayed.
Human inosine-5′-monophosphate dehydrogenase (hIMPDH2) was purchased from NovoCIB SAS (Lyon, France). […] The assay was carried out in 96-well plates (Tarsons, 980040). The reaction buffer consisted of hundred mM KCl, hundred mM Tris–HCl (pH 8.6), and five mM DTT, 4% v/v DMSO with or without the tested compound and 0.15 mU of purified hIMPDH2 enzyme per well (from 1.5 mg/mL stock concentration). The enzyme stock solution final volume was 2 μL per well, which was insignificant to cause final assay buffer composition change. Addition of (substrate buffer) 0.2 mM of IMP and 0.2 mM of NAD^+ initiated the assay, then it was allowed to proceed for 30 min at 37 °C. The formed NADH was measured by reading the absorbance at 340 nm. […] The concentration of the tested sample leading to 50% hIMPDH2 inhibition (IC50) was estimated.

ovine COX-1 = molecular target: T2, ovine COX-1 (Ovis aries, UniProt P05979); assay: COX-1 inhibitory activity, colourimetric COX inhibitor screening assay kit; format: biochemical; conditions: ovine COX-1; read-out: IC50 (COX-1)
T2 construct: purchased
T2 sequence (P05979 25-600): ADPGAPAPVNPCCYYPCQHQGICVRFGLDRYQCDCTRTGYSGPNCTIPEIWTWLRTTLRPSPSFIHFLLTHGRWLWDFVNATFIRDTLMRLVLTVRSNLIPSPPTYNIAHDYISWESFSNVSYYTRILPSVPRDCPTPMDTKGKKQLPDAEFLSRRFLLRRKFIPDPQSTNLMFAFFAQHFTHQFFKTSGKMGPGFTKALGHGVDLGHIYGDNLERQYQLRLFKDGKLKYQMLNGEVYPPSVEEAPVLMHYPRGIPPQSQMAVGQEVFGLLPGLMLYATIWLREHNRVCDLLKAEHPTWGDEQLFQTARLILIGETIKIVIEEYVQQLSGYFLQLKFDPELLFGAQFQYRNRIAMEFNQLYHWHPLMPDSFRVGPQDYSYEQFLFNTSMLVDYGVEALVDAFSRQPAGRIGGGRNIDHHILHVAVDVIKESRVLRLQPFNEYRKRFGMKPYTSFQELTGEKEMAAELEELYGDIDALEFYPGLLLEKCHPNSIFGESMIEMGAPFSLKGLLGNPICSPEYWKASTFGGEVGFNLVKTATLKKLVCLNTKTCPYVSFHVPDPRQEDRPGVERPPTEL
Method: The inhibitory COX activity was assayed colourimetrically by examining the inhibition of the ovine COX-1 and human recombinant COX-2 enzymes as described by George et al.[38], using a COX inhibitor screening assay kit. The detailed procedures were described in the supplementary file.
The inhibitory COX activity was assayed colourimetrically by examining the inhibition of the ovine COX-1 and human recombinant COX-2 enzymes as described by George et al. ^2, using a COX inhibitory screening assay kit. This assay determines the COX peroxidase activity by monitoring the appearance of N,N,N',N'-tetramethyl-p-phenylenediamine (TMPD). Assay buffer (150 μL 0.1 M Tris–HCl pH 8.0), 10 μL heme and 10μL enzyme (COX-1 or COX-2) were added in each well. Ten μL of each tested sample concentration was added to each well and incubated for 15 minutes at 37°C. After incubation, 20 μL of TMPD was added to each well. For initiating the reaction, 10 μL 10 mM arachidonic acid was added and the plates were further incubated for another 2 minutes at 37°C. For terminating the reaction, 50 μL 1 N HCl and saturated stannous chloride were added.
Reaction mixture containing assay buffer and heme acted as the blank and a mixture with either COX-1 or COX-2 assay buffer and heme acted as the 100% initial activity (IA). […] The absorbances of oxidized TMPD (blue colour) were read in ELISA plate reader at 590 nm. The % inhibition was calculated using the following formula:
COX % Inhibition= [(100%IA−Inhibitor)/ 100% IA x 100]. Where, IA: 100% initial activity.
The concentration at which the tested sample produces 50% inhibition of COX-1 and/or COX-2 (IC50) was determined. The selectivity index (SI) was calculated also as IC50 (COX-1)/ (COX-2).

H. pylori ATCC 700392 = assay: anti-Helicobacter pylori activity, microwell dilution method with MTT; format: cell-based; conditions: for MIC: read-out: MIC (H. pylori)
Method: The anti-Helicobacter pylori activity of the PF and NPF as well as the isolated compounds was evaluated against H. pylori ATCC 700392 (type strain, obtained from the American Type Culture Collection unit (ATCC), using microwell dilution method and clarithromycin as standard drug[37]. The detailed procedures were described in the supplementary file.
The anti-Helicobacter pylori activity of the PF and NPF as well as the isolated compounds was evaluated against H. pylori ATCC 700392 (a type strain, obtained from the American Type Culture Collection unit (ATCC), using microwell dilution method and clarithromycin as standard drug ^1. The tested samples were prepared in dimethyl sulfoxide and successive ten twofold dilutions (125- 0.24 µg/mL) were carried out in a 96-well plate. Each microplate well included forty μL of Brain Heart Infusion growth medium and 10% fetal bovine serum (FBS), ten μL of inoculum and fifty μL of the tested sample. The plates were incubated for 3 days, in 5% oxygen, 10% carbon dioxide, 85 % nitrogen atmosphere at 37°C. Forty μL of 3- (4, 5-dimethyl-thiazol-2-yl)- 2,5-diphenyl-tetrazolium bromide (MTT) at a final concentration of 0.5 mg/mL freshly prepared in H2O was added to each well and incubated for 30 min. The bacteria were biologically active when change to purple color was observed ^1. While no change in MTT color indicated inhibition. Solvent control (DMSO) and the standard antibiotic (clarithromycin) were used as negative and positive controls, respectively. The H. pylori inhibition % was calculated using the given formula:
% Inhibition = Abs control – Abs sample × 100 /Abs control.

`COc1cc(-c2coc3cc(O)c(OC)c(O)c3c2=O)cc(O)c1OC` [Irigenin (P3), 3′,5,7-trihydroxy-4′,5′,6 trimethoxyisoflavone] was tested, and the IC50 [1] was 42.5 ± 1.8 µM, the IC50 [2] was > 10 µM and the hIMPDH2 inhibitory activity ([2]; sample conc. 0.078 (range 10–0.078 µM)) was 0.00. It also gave a hIMPDH2 inhibitory activity ([2]; sample conc. 0.156 (range 10–0.078 µM)) of 0.00, a hIMPDH2 inhibitory activity ([2]; sample conc. 0.313 (range 10–0.078 µM)) of 0.00 and a hIMPDH2 inhibitory activity ([2]; sample conc. 0.625 (range 10–0.078 µM)) of 0.00. The hIMPDH2 inhibitory activity ([2]; sample conc. 1.25 (range 10–0.078 µM)) was 0.00, the hIMPDH2 inhibitory activity ([2]; sample conc. 2.5 (range 10–0.078 µM)) was 4.81 ± 0.91 and the hIMPDH2 inhibitory activity ([2]; sample conc. 5 (range 10–0.078 µM)) was 10.36 ± 0.72. The hIMPDH2 inhibitory activity ([2]; sample conc. 10 (range 10–0.078 µM)) was 22.68 ± 1.00, the IC50 (ovine COX-1) was 35.2 ± 1.4 µM and the MIC (H. pylori ATCC 700392; Helicobacter pylori, ATCC700392) was 3.9 µg/mL and 10.8 µM. The “MIC (H. pylori)” value (H. pylori ATCC 700392; concentration required for 100% inhibition, H. pylori ATCC 700392, ND = not detected) was 3.90 µg/mL (≈ 10.8 µM) and the MIC (H. pylori ATCC 700392; concentration required for 100% inhibition, H. pylori ATCC 700392) was 10.82 µM (≈ 3.9 µg/mL).
